From ChEMBL document CHEMBL1201862, “PubChem BioAssay data set” (2004)
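Tested at 5 concentrations; 48 h exposure; 96-well plates; endpoints linearly interpolated, else capped at highest concentration. Here, GI50 denotes the concentration required for 50% inhibition of growth.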 The source made the active and inactive calls. Rule as the data show it: active = GI50 up to about 1.1 µM and inactive = higher.

How the values were obtained:
Assay in all cases: NCI tumour cell line growth inhibition, 48 h
SF-295 = system: SF-295
A498 = system: A498
UACC-257 = system: UACC-257
MDA-MB-231 = system: MDA-MB-231
HOP-92 = system: HOP-92
SF-539 = system: SF-539
786-0 = system: 786-0
MDA-MB-435 = system: MDA-MB-435
T47D = system: T47D
ACHN = system: ACHN
U-251 = system: U-251
NCI/ADR-RES = system: NCI/ADR-RES
SN12C = system: SN12C
NCI-H522 = system: NCI-H522
EKVX = system: EKVX
PC-3 = system: PC-3
OVCAR-4 = system: OVCAR-4
HT-29 = system: HT-29
LOX IMVI = system: LOX IMVI
BT-549 = system: BT-549
MDA-N = system: MDA-N
SK-MEL-28 = system: SK-MEL-28
NCI-H23 = system: NCI-H23
COLO 205 = system: COLO 205
HOP-62 = system: HOP-62
SW-620 = system: SW-620
KM12 = system: KM12
OVCAR-3 = system: OVCAR-3
OVCAR-8 = system: OVCAR-8
SK-MEL-5 = system: SK-MEL-5
Malme-3M = system: Malme-3M
RXF 393 = system: RXF 393
SK-OV-3 = system: SK-OV-3
RPMI-8226 = system: RPMI-8226
TK-10 = system: TK-10
UACC-62 = system: UACC-62
MCF7 = system: MCF7
HL-60 = system: HL-60
DU-145 = system: DU-145
IGROV-1 = system: IGROV-1
SK-MEL-2 = system: SK-MEL-2
M14 = system: M14
SF-268 = system: SF-268
NCI-H460 = system: NCI-H460
OVCAR-5 = system: OVCAR-5
Hs-578T = system: Hs-578T
MOLT-4 = system: MOLT-4
CAKI-1 = system: CAKI-1
SNB-19 = system: SNB-19
HCT-15 = system: HCT-15
CCRF-CEM = system: CCRF-CEM
HCT-116 = system: HCT-116
A549 = system: A549
NCI-H226 = system: NCI-H226
UO-31 = system: UO-31
SNB-75 = system: SNB-75
SR = system: SR
K562 = system: K562
HCC 2998 = system: HCC 2998

## O=C(c1ccsc1)c1nccc2c1cnc1ccccc12
SF-295
  GI50: 45.5 µM (inactive)
A498
  GI50: 75 µM (inactive)
UACC-257
  GI50: 45.2 µM (inactive)
MDA-MB-231
  GI50: 61 µM (inactive)
HOP-92
  GI50: 22.5 µM (inactive)
SF-539
  GI50: > 100 µM (inactive)
786-0
  GI50: 97.7 µM (inactive)
MDA-MB-435
  GI50: > 100 µM (inactive)
T47D
  GI50: > 100 µM (inactive)
ACHN
  GI50: > 100 µM (inactive)
U-251
  GI50: 85.1 µM (inactive)
NCI/ADR-RES
  GI50: > 100 µM (inactive)
SN12C
  GI50: > 100 µM (inactive)
NCI-H522
  GI50: 12.7 µM (inactive)
EKVX
  GI50: 15.6 µM (inactive)
PC-3
  GI50: > 100 µM (inactive)
OVCAR-4
  GI50: 94.8 µM (inactive)
HT-29
  GI50: > 100 µM (inactive)
LOX IMVI
  GI50: > 100 µM (inactive)
BT-549
  GI50: > 100 µM (inactive)
MDA-N
  GI50: > 100 µM (inactive)
SK-MEL-28
  GI50: > 100 µM (inactive)
NCI-H23
  GI50: 45.3 µM (inactive)
COLO 205
  GI50: > 100 µM (inactive)
HOP-62
  GI50: 25.5 µM (inactive)
SW-620
  GI50: > 100 µM (inactive)
KM12
  GI50: > 100 µM (inactive)
OVCAR-3
  GI50: > 100 µM (inactive)
OVCAR-8
  GI50: > 100 µM (inactive)
SK-MEL-5
  GI50: 36.2 µM (inactive)
Malme-3M
  GI50: 65.5 µM (inactive)
RXF 393
  GI50: 84.9 µM (inactive)
SK-OV-3
  GI50: 54.8 µM (inactive)
RPMI-8226
  GI50: > 100 µM (inactive)
TK-10
  GI50: 42.6 µM (inactive)
UACC-62
  GI50: 65.6 µM (inactive)
MCF7
  GI50: 47.2 µM (inactive)
HL-60
  GI50: 2.47 µM (inactive)
DU-145
  GI50: > 100 µM (inactive)
IGROV-1
  GI50: 0.286 µM (active)
SK-MEL-2
  GI50: > 100 µM (inactive)
M14
  GI50: > 100 µM (inactive)
SF-268
  GI50: 77.3 µM (inactive)
NCI-H460
  GI50: 89.9 µM (inactive)
OVCAR-5
  GI50: 49.8 µM (inactive)
Hs-578T
  GI50: 17 µM (inactive)
MOLT-4
  GI50: 4.44 µM (inactive)
CAKI-1
  GI50: > 100 µM (inactive)
SNB-19
  GI50: 53.5 µM (inactive)
HCT-15
  GI50: > 100 µM
CCRF-CEM
  GI50: > 100 µM (inactive)
HCT-116
  GI50: 62.1 µM (inactive)
A549
  GI50: > 100 µM (inactive)
NCI-H226
  GI50: 34.8 µM (inactive)
UO-31
  GI50: 6.55 µM (inactive)
SNB-75
  GI50: 30.5 µM (inactive)

## O=C(c1cc(Cl)ccc1Cl)N1CCN(c2cccc(Cl)c2)CC1
SF-295
  GI50: 7.55 µM (inactive)
A498
  GI50: 12.7 µM (inactive)
SR
  GI50: 26.4 µM (inactive)
UACC-257
  GI50: 15.2 µM (inactive)
MDA-MB-231
  GI50: 5.6 µM (inactive)
HOP-92
  GI50: > 10 µM (inactive)
SF-539
  GI50: 13.6 µM (inactive)
786-0
  GI50: 15.3 µM (inactive)
T47D
  GI50: 10.7 µM (inactive)
ACHN
  GI50: 22.8 µM (inactive)
U-251
  GI50: 19 µM (inactive)
SN12C
  GI50: 4.09 µM (inactive)
NCI-H522
  GI50: 10.6 µM (inactive)
EKVX
  GI50: 22.9 µM (inactive)
PC-3
  GI50: 2.08 µM (inactive)
OVCAR-4
  GI50: 33 µM (inactive)
HT-29
  GI50: 12.4 µM (inactive)
LOX IMVI
  GI50: 10.9 µM (inactive)
BT-549
  GI50: 8.61 µM (inactive)
MDA-N
  GI50: 1.87 µM (inactive)
SK-MEL-28
  GI50: 15.6 µM (inactive)
NCI-H23
  GI50: 32.9 µM (inactive)
K562
  GI50: 3.92 µM (inactive)
HOP-62
  GI50: 16 µM (inactive)
SW-620
  GI50: 24.2 µM (inactive)
KM12
  GI50: 6.07 µM (inactive)
OVCAR-3
  GI50: 14.5 µM (inactive)
OVCAR-8
  GI50: 14.8 µM (inactive)
SK-MEL-5
  GI50: 6.59 µM (inactive)
Malme-3M
  GI50: 11.1 µM (inactive)
RXF 393
  GI50: 11.1 µM (inactive)
RPMI-8226
  GI50: 22.3 µM (inactive)
TK-10
  GI50: 49.5 µM (inactive)
MCF7
  GI50: 12.4 µM (inactive)
HL-60
  GI50: 38.4 µM (inactive)
DU-145
  GI50: 31.5 µM (inactive)
IGROV-1
  GI50: 10.8 µM (inactive)
M14
  GI50: 22.2 µM (inactive)
SF-268
  GI50: 27.9 µM (inactive)
NCI-H460
  GI50: 14.6 µM (inactive)
OVCAR-5
  GI50: 26.4 µM (inactive)
HCC 2998
  GI50: 13.5 µM (inactive)
Hs-578T
  GI50: 21.9 µM (inactive)
MOLT-4
  GI50: 8.51 µM (inactive)
CAKI-1
  GI50: 17.7 µM (inactive)
SNB-19
  GI50: 34.8 µM (inactive)
HCT-15
  GI50: 8.85 µM
CCRF-CEM
  GI50: 12.2 µM (inactive)
HCT-116
  GI50: 11.4 µM (inactive)
A549
  GI50: 11 µM (inactive)
NCI-H226
  GI50: 12.8 µM (inactive)
UO-31
  GI50: 19.7 µM (inactive)
SNB-75
  GI50: 13.9 µM (inactive)

## CC(=O)c1cccc(Nc2nc3ccccc3c3[nH]c4ccccc4c23)c1
SF-295
  GI50: 3.53 µM (inactive)
UACC-257
  GI50: 9.04 µM (inactive)
MDA-MB-231
  GI50: 3.19 µM (inactive)
HOP-92
  GI50: 2.87 µM (inactive)
SF-539
  GI50: 4 µM (inactive)
786-0
  GI50: 3.01 µM (inactive)
MDA-MB-435
  GI50: 4.48 µM (inactive)
T47D
  GI50: 3.48 µM (inactive)
ACHN
  GI50: 3.63 µM (inactive)
U-251
  GI50: 3.98 µM (inactive)
NCI/ADR-RES
  GI50: 4.05 µM (inactive)
SN12C
  GI50: 3.49 µM (inactive)
NCI-H522
  GI50: 2.57 µM (inactive)
EKVX
  GI50: 3.05 µM (inactive)
PC-3
  GI50: 4.65 µM (inactive)
HT-29
  GI50: 4.02 µM (inactive)
BT-549
  GI50: > 100 µM (inactive)
MDA-N
  GI50: 4.73 µM (inactive)
NCI-H23
  GI50: 9.38 µM (inactive)
K562
  GI50: 4.69 µM (inactive)
COLO 205
  GI50: 2.23 µM (inactive)
HOP-62
  GI50: 7.31 µM (inactive)
SW-620
  GI50: 4.81 µM (inactive)
KM12
  GI50: 4.66 µM (inactive)
OVCAR-3
  GI50: 2.48 µM (inactive)
OVCAR-8
  GI50: 3.86 µM (inactive)
Malme-3M
  GI50: 3.61 µM (inactive)
SK-OV-3
  GI50: 5.42 µM (inactive)
RPMI-8226
  GI50: 3.03 µM (inactive)
TK-10
  GI50: 7.55 µM (inactive)
UACC-62
  GI50: 1.94 µM (inactive)
MCF7
  GI50: 0.403 µM (active)
DU-145
  GI50: 4.93 µM (inactive)
IGROV-1
  GI50: 2.88 µM (inactive)
SK-MEL-2
  GI50: 3.75 µM (inactive)
M14
  GI50: 8.79 µM (inactive)
SF-268
  GI50: 3.67 µM (inactive)
NCI-H460
  GI50: 1.7 µM (inactive)
OVCAR-5
  GI50: 6.52 µM (inactive)
Hs-578T
  GI50: 10.9 µM (inactive)
CAKI-1
  GI50: 3.8 µM (inactive)
SNB-19
  GI50: 16.2 µM (inactive)
HCT-15
  GI50: 3.94 µM
CCRF-CEM
  GI50: 5.74 µM (inactive)
HCT-116
  GI50: 4.28 µM (inactive)
A549
  GI50: 2.78 µM (inactive)
UO-31
  GI50: 3.33 µM (inactive)
